Measurements published in patent US7026281B1, “Antagonistic analogs of GH-RH inhibiting IGF-I and -II” (The Administrators of the Tulane Educational Fund, priority 1998, dated 2006).
Square brackets hold non-standard residues; d marks the D form. Peptide text beside a SMILES is read from it. * marks the point of attachment. Acetyl(1-naphthyl) = O=C(Cc1cccc2ccccc12)*; Phe(4-Cl) = N[C@@H](Cc1ccc(Cl)cc1)C(=O)O; hArg = N=C(N)NCCCC[C@H](N)C(=O)O; Nle = CCCC[C@H](N)C(=O)O; Abu = CC[C@H](N)C(=O)O; PhAc = O=C(Cc1ccccc1)*

Legend:
[1] = system: hGH-RH(1–29)NH2 induced GH release; test: Inhibition of GH release in superfused rat pituitary system; assay type: cell-based; conditions: antagonist 30 nM; for Inhibition of GH release (%) 30 min: 1 nM hGH-RH(1–29)NH2 30 min later; for Inhibition of GH release (%) 60 min: 1 nM hGH-RH(1–29)NH2 60 min later; for Inhibition of GH release (%) 90 min: 1 nM hGH-RH(1–29)NH2 90 min later; for Inhibition of GH release (%) 120 min: 1 nM hGH-RH(1–29)NH2 120 min later; for Inhibition of GH release (%) 0 min: 1 nM hGH-RH(1–29)NH2 at 0 min
Method: Superfused Rat Pituitary System.
The analogs were tested in vitro in a test described earlier (S. Vigh and A. V. Schally, Peptides 5:241–347, 1984) with modification (Z. Rekasi and A. V. Schally, P.N.A.S. 90:2146–2149, 1993).
Briefly, the cells are preincubated with peptides for 9 minutes (3 mL) at various concentrations. Immediately after the incubation, 1 nM hGH-RH(1–29)NH2 is administered for 3 minutes (1 mL) [0 minute response]. To check the duration of the antagonistic effect of the analogue, 1 nM hGH-RH(1–29)NH2 is applied 30, 60, 90, and 120 minutes later for 3 minutes [30, 60, 90, 120 min responses]. Net integral values of the GH responses are evaluated. GH responses are compared to and expressed as percent of the original GH response induced by 1 nM GH-RH(1–29)NH2. The effect of the new antagonists are compared to that of [Ac-Tyr^1,D-Arg^2]hGH-RH(1–29)NH2, the “Standard antagonist”.
Growth Hormone Radio-immunoassay.
Rat GH levels in aliquots of undiluted and diluted superfusion samples were measured by double-antibody radioimmunoassay using materials supplied by the National Hormone and Pituitary Program, Baltimore, Md. The results of RIA were analyzed with a computer program developed in our institute (V. Csernus and A. V. Schally, in Neuroendocrine Research Methods, Harwood Academic (Greenstein, B. D. ed., London, pp. 71–109, 1991), hereby incorporated by reference. Inter-assay variation was less than 15% and intra-assay variation was less than 10%.

[2] = biological target: T1, rat pituitary GH-RH receptors (Rattus norvegicus, UniProt Q02644); test: GH-RH radioreceptor binding assay, rat anterior pituitary membrane homogenates; conditions: for Ki: competition with [His1,125I-Tyr10,Nle27]hGH-RH(1–32)NH2; for R.A. (relative affinity compared to Standard antagonist): ratio of Ki values
T1 construct: from tissue; host or cells: anterior pituitary of male Sprague-Dawley rats, crude membrane homogenates
T1 sequence (Q02644 23-464): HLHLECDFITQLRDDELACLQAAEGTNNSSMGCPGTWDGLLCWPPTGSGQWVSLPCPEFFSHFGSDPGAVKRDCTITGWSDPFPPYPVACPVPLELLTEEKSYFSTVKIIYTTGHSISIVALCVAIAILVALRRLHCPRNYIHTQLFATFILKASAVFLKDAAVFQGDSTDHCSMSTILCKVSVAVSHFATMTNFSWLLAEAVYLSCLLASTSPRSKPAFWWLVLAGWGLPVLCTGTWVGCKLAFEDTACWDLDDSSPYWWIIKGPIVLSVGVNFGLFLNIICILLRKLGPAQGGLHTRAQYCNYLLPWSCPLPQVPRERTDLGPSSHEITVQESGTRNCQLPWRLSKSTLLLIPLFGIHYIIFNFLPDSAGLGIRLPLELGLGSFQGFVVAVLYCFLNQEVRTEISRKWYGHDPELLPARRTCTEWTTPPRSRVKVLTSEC
Method: GH-RH Binding Assay. A sensitive radioreceptor binding assay was developed to determine the binding characteristics of the antagonists of GH-RH (G. Halmos, A. V. Schally et al., Receptor 3, 87–97, 1993), hereby incorporated by reference. The assay is based on binding of labelled [His^1,Nle^27]hGH-RH(1–32)NH2 to rat anterior pituitary membrane homogenates. Iodinated derivatives of [His^1,Nle^27]hGH-RH(1–32)NH2 are prepared by the chloramine-T method (F. C. Greenwood et al., Biochemistry 89:114–123, 1963), hereby incorporated by reference. Pituitaries from male Sprague-Dawley rats (250–300 g) are used to prepare crude membranes. For saturation binding analyses, membrane homogenates are incubated with at least 6 concentrations of [His^1,^125I-Tyr^10,Nle^27]hGH-RH(1–32) NH2, ranging from 0.005 to 0.35 nM in the presence or absence of excess unlabelled peptide (1 μM).
The pellet is counted for radioactivity in a γ-counter. The affinities of the antagonist peptides tested to rat pituitary GH-RH receptors are determined in competitive binding experiments. The final binding affinities are estimated by Ki (dissociation constant of the inhibitor-receptor complex) and are determined by the Ligand PC and McPherson computer programs of Munson and Rodbard (P. J. Munson and D. Rodbard, Anal. Biochem. 107. 220–239, 1980). Relative affinities compared to [Ac-Tyr^1,D-Arg^2]hGH-RH(1–29)NH2, the Standard antagonist, are calculated as the […].

[3] = system: GH release stimulated by hGH-RH(1–29)NH2; test: In vivo inhibition of serum GH response in rats; design: species or system rat
Method: GH-RH antagonistic effect of the analogs was tested on young male Sprague-Dawley rats (200–250 g). In each experiment, 5 groups of 7 animals each were used. The compounds (80 μg/kg) and GH-RH(1–29)NH2 (3 μg/kg) were dissolved in 5.5% mannitol and given intravenously to the jugular vein of the rats under Nembutal anesthesia. The time elapsed between the administrations of the antagonist and GH-RH varied between groups, according to the following schedule. The first group of animals received GH-RH injection 5 min after the administration of the antagonist; for the second, third and fourth group of animals, the time interval elapsed between the injection of the antagonist and that of GH-RH was 15, 30, and 60 min, respectively. The control group was first injected with the solvent alone instead of the antagonist, followed by a GH-RH injection 5 min later.
0.4 mL blood samples were taken for GH RIA before the administration of the antagonist (“blood0”), and 5 min after the injection of GH-RH (“blood1”). The GH response in each group was calculated as rGH=(GHblood1/GHblood0), mean±S.E.M. of the individual differences. Relative inhibition of GH response (%) in each group treated was calculated as […].

Molecule | Inhibition of GH release (%) 30 min [1] | Inhibition of GH release (%) 60 min [1] | Inhibition of GH release (%) 90 min [1] | Inhibition of GH release (%) 120 min [1] | Inhibition of GH release (%) 0 min [1] | Ki [2] | R.A. (relative affinity compared to Standard antagonist) [2] | Inhibition of the GH release stimulated by hGH-RH(1–29)NH2 (in words) ([3]; 80 μg/kg i.v., rats) | Relative inhibition % of GH response ([3]; antagonist 80 μg/kg i.v. 5 min before GH-RH) | Relative inhibition % of GH response ([3]; antagonist 80 μg/kg i.v. 15 min before GH-RH) | GH response mean ± S.E.M. ([3]; antagonist 80 μg/kg i.v. 15 min before GH-RH 3 μg/kg) | Relative inhibition % of GH response ([3]; antagonist 80 μg/kg i.v. 30 min before GH-RH) | GH response mean ± S.E.M. ([3]; antagonist 80 μg/kg i.v. 30 min before GH-RH 3 μg/kg) | Relative inhibition % of GH response ([3]; antagonist 80 μg/kg i.v. 60 min before GH-RH) | GH response mean ± S.E.M. ([3]; antagonist 80 μg/kg i.v. 60 min before GH-RH 3 μg/kg) | GH response mean ± S.E.M. ([3]; rGH=GHblood1/GHblood0, antagonist 80 μg/kg i.v. 5 min before GH-RH 3 μg/kg)
CCCC[C@H](NC(=O)[C@@H](NC(=O)[C@H](CC(=O)O)NC(=O)[C@H](CCC(N)=O)NC(=O)[C@H](CC(C)C)NC(=O)[C@H](CC(C)C)NC(=O)[C@H](CCCCN)NC(=O)[C@H](CCCNC(=N)N)NC(=O)[C@H](C)NC(=O)[C@H](CO)NC(=O)[C@H](CC(C)C)NC(=O)[C@H](CCC(N)=O)NC(=O)[C@H](CC)NC(=O)[C@H](CC(C)C)NC(=O)[C@@H](NC(=O)[C@H](CCCCN)NC(=O)[C@H](CCCNC(=N)N)NC(=O)[C@H](Cc1ccc(O)cc1)NC(=O)[C@H](CCCNC(=N)N)NC(=O)[C@H](CC(N)=O)NC(=O)[C@@H](NC(=O)[C@H](Cc1ccc(Cl)cc1)NC(=O)[C@@H](NC(=O)[C@H](C)NC(=O)[C@H](CC(=O)O)NC(=O)[C@@H](CCCNC(=N)N)NC(=O)[C@H](Cc1ccc(O)cc1)NC(=O)Cc1cccc2ccccc12)[C@@H](C)CC)[C@@H](C)O)C(C)C)[C@@H](C)CC)C(=O)N[C@H](CCCNC(=N)N)C(=O)N[C@@H](CCCCNC(=N)N)C(N)=O [Peptide 5, [Nac^0, D-Arg^2, Phe(pCl)^6, Arg^9, Abu^15, Nle^27, D-Arg^28, Har^29]hGH-RH(1–29)NH2] ({Acetyl(1-naphthyl)}-Y[dR]DAI[Phe(4-Cl)]TNRYRKVL[Abu]QLSARKLLQDI[Nle][dR][hArg]-NH2) | 77% | 59% | 58% | 50% | 79% | 0.036 nM | 82 |  |  |  |  |  |  |  |  | 
CCCC[C@H](NC(=O)[C@@H](NC(=O)[C@H](CC(=O)O)NC(=O)[C@H](CCC(N)=O)NC(=O)[C@H](CC(C)C)NC(=O)[C@H](CC(C)C)NC(=O)[C@H](CCCCN)NC(=O)[C@H](CCCNC(=N)N)NC(=O)[C@H](C)NC(=O)[C@H](CO)NC(=O)[C@H](CC(C)C)NC(=O)[C@H](CCCNC(=N)N)NC(=O)[C@H](CC)NC(=O)[C@H](CC(C)C)NC(=O)[C@@H](NC(=O)[C@H](CCCCN)NC(=O)[C@H](CCCNC(=N)N)NC(=O)[C@H](Cc1ccc(O)cc1)NC(=O)[C@H](CO)NC(=O)[C@H](CC(N)=O)NC(=O)[C@@H](NC(=O)[C@H](Cc1ccc(Cl)cc1)NC(=O)[C@@H](NC(=O)[C@H](C)NC(=O)[C@H](CC(=O)O)NC(=O)[C@@H](CCCNC(=N)N)NC(=O)[C@H](Cc1ccc(O)cc1)NC(=O)Cc1ccccc1)[C@@H](C)CC)[C@@H](C)O)C(C)C)[C@@H](C)CC)C(=O)N[C@@H](CO)C(=O)N[C@H](CCCNC(=N)N)C(N)=O [Peptide 10, [PhAc^0, D-Arg^2, Phe(pCl)^6, Abu^15, Arg^16, Nle^27, D-Arg^29]hGH-RH(1–29)NH2] (PhAc-Y[dR]DAI[Phe(4-Cl)]TNSYRKVL[Abu]RLSARKLLQDI[Nle]S[dR]-NH2) | 69% | 46% | 24% | 22% | 75% | 0.107 nM | 27 |  |  |  |  |  |  |  |  | 
[Nac^0, His^1, D-Arg^2, Phe(pCl)^6, Arg^9, Abu^15, Nle^27, D-Arg^28, Har^29]hGH-RH(1–29)NH2 [Peptide 8] | 100% | 98% | 97% | 90% | 100% |  |  | strong and long-lasting inhibition | 74% | 46% | 3.6 ± 0.4 | 8% | 5.5 ± 0.6 | 1% | 5.8 ± 0.7 | 2.3 ± 0.3
[PhAc^0, D-Arg^2, Phe(pCl)^6, Arg^9, Tyr(Me)^10, Abu^15, Nle^27, D-Arg^28, Har^29]hGH-RH(1–29)NH2 [Peptide 6] | 93% | 97% | 95% | 90% | 93% |  |  |  |  |  |  |  |  |  |  | 
[PhAc^0, D-Arg^2, Phe(pCl)^6, Tyr(Me)^10, Abu^15, D-Arg^27, Arg^28, D-Arg^29]hGH-RH(1–29)NH2 [Peptide 19] | 47% | 59% | 23% | 39% | 58% |  |  |  |  |  |  |  |  |  |  | 
[PhAc^0, His^1, D-Arg^2, Phe(pCl)^6, Arg^9, Abu^15, Nle^27, D-Arg^28, Har^29]hGH-RH(1–29)NH2 [Peptide 7] | 92% | 82% | 77% | 65% | 97% |  |  |  |  |  |  |  |  |  |  | 
